In patent US20110165115A1, “SYNERGISTIC ATTRACTANTS FOR PESTIFEROUS SOCIAL INSECTS” (STERLING INTERNATIONAL INC., priority 2010, published 2011):

How the values were obtained:
[1] = system: V. pensylvanica; experiment: Field trapping Experiment 2, DMNT dose-response with W•H•Y top attractants; assay type: in vivo, Vespula pensylvanica; settings: Exp 2, DMNT added to WHY top attractant
Description: (§1) Three field trapping experiments were carried out during late July to early August 2009, in residential and woody areas around Spokane, Wash., USA, using the newly marketed Rescue® W•H•Y traps (www.rescue.com). As used herein, the W•H•Y trap is a trap in accordance with the description of United States Patent Application Publication No. 2009/0151228. The W•H•Y trap has a top chamber and a bottom chamber. The top chamber is baited with two attractants—one of which is a solid contained in a vial (2-methyl-1-butanol) and the other a liquid mixed with water (acetic acid), herein referred to as the W•H•Y top attractant. The bottom chamber is baited with a liquid attractant (heptyl butyrate) poured onto a cotton pad, herein referred to as the W•H•Y bottom attractant. Separation of the top and bottom attractants (otherwise antagonistic to each other when released from the same chamber) in two chambers was a design feature of this trap and creates two focal attraction sources from one trap for different species of wasps, hornets, and yellowjackets. Traps were hung 1.5-2.0 m above the ground on either the fence or tree branches ca. 5 m apart within each trap line. For each trapping experiment, six sets of traps were deployed with their initial trap positions within each set being randomized. To minimize positional effects and obtain more replications, wasp collections and trap re-randomization were carried out when ≧10-20 wasps were caught in the best trap. Each replicate lasted several days depending on wasp flight activity. Captured wasps were removed from the traps and kept in the zip-bags before taking back to the laboratory for recording of the species, gender status, and catch.
(§2) Experiment 3 (Aug. 5-13, 2009) was conducted to determine the potential behavioral activity of different doses of (E)-4,8-dimethyl-1,3,7-nonatriene alone. The individual (or different doses) HIPVs were loaded into either polyethylene bags or centrifuge tube type of dispensers, and released from the top of the W•H•Y trap chamber. W•H•Y trap attractants (both top and bottom or top only) alone and water (top chamber only) were included in the test as positive and blank controls, respectively. The dispenser types, loading and release rates of the tested semiochemicals are described in Tables 1, 2 and 3.
(§3) Trap catch data were converted to proportion (P) of total captured wasps within each replicate. Data were then transformed by arcsin√P to meet the assumptions of normality and homogeneity of variances for ANOVA. Means were compared by ANOVA followed by the Ryan-Einot-Gabriel-Welsh (REGW) multiple Q test (SPSS 16.0 for Windows) at α=0.05.

[2] = system: V. vulgaris; experiment: as above; assay type: in vivo, Vespula vulgaris; settings: Exp 2, DMNT added to WHY top attractant
Description: as §1, §2, §3

[3] = system: D. maculata; experiment: as above; assay type: in vivo, Dolichovespula maculata; settings: Exp 2, DMNT added to WHY top attractant
Description: as §1
(§4) Experiment 1 (Jul. 22-30, 2009) tested ten synthetic HIPV candidates [(E)-2-hexenal, (Z)-3-hexen-1-ol, (Z)-3-hexenyl acetate, cis-ocimene, linalool, methyl salicylate, geranyl acetate, trans-β-caryophyllene, trans-β-farnesene and (E)-4,8-dimethyl-1,3,7-nonatriene], including several paper wasp EAD-active compounds (see FIG. 2 for details), to determine their potential synergistic effect on the Rescue® W•H•Y trap attractants to paper wasps, yellowjackets, and hornets. Experiment 2 (Aug. 5-13, 2009) tested behavioral responses of the paper wasps and yellowjackets to the Rescue® W•H•Y trap attractants (top attractants only) and its combination with (E)-4,8-dimethyl-1,3,7-nonatriene, one of the EAD-active and behaviorally significant HIPVs, in a dose-response fashion. Experiment 3 (Aug. 5-13, 2009) was conducted to determine the potential behavioral activity of different doses of (E)-4,8-dimethyl-1,3,7-nonatriene alone. The individual (or different doses) HIPVs were loaded into either polyethylene bags or centrifuge tube type of dispensers, and released from the top of the W•H•Y trap chamber. W•H•Y trap attractants (both top and bottom or top only) alone and water (top chamber only) were included in the test as positive and blank controls, respectively. The dispenser types, loading and release rates of the tested semiochemicals are described in Tables 1, 2 and 3.
as §3

[4] = system: V. atropilosa; experiment: as above; assay type: in vivo, Vespula atropilosa; settings: Exp 2, DMNT added to WHY top attractant
Description: as §1, §2, §3

[5] = system: P. aurifer; experiment: as above; assay type: in vivo, Polistes aurifer; settings: Exp 2, DMNT added to WHY top attractant
Description: as §1, §2, §3

[6] = system: V. atropilosa; experiment: Field trapping Experiment 3, different doses of DMNT alone; assay type: in vivo, Vespula atropilosa
Description: as §1, §2, §3

[7] = system: V. vulgaris; experiment: as above; assay type: in vivo, Vespula vulgaris
Description: as §1, §2, §3

[8] = system: D. maculata; experiment: as above; assay type: in vivo, Dolichovespula maculata
Description: as §1, §4, §3

[9] = system: V. acadica; experiment: as above; assay type: in vivo, Vespula acadica
Description: as §1, §2, §3

[10] = system: yellowjackets; experiment: Field trapping Experiment 1, top chamber catches; assay type: in vivo; settings: Exp 1; HIPV combined with W•H•Y attractant (acetic acid and 2-methyl-1-butanol) in the top chamber
Description: as §1
(§5) Experiment 3 (Aug. 5-13, 2009) was conducted to determine the potential behavioral activity of different doses of (E)-4,8-dimethyl-1,3,7-nonatriene alone. The individual (or different doses) HIPVs were loaded into either polyethylene bags or centrifuge tube type of dispensers, and released from the top of the W•H•Y trap chamber. […]

[11] = system: paper wasps; experiment: Field trapping Experiment 1, top chamber catches; assay type: in vivo, P. dominulus and P. aurifer; settings: Exp 1; HIPV combined with W•H•Y attractant (acetic acid and 2-methyl-1-butanol) in the top chamber
Description: as §1, with “To minimize positional effects and obtain more replications, wasp collections and trap re-randomization were carried out when ≧10-20 wasps were caught in the best trap. Each replicate lasted several days depending on wasp flight activity. Captured wasps were removed from the traps and kept in the zip-bags before taking back to the laboratory for recording of the species, gender status, and catch.” left out

[12] = system: paper wasps, yellowjackets, or hornets; experiment: Field trapping Experiment 3, DMNT alone; assay type: in vivo; settings: Exp 3, different doses alone, without any W•H•Y attractants
Description: as §1, with “To minimize positional effects and obtain more replications, wasp collections and trap re-randomization were carried out when ≧10-20 wasps were caught in the best trap. Each replicate lasted several days depending on wasp flight activity. Captured wasps were removed from the traps and kept in the zip-bags before taking back to the laboratory for recording of the species, gender status, and catch.” left out

[13] = system: paper wasps and yellowjackets; experiment: Field trapping bioassays, synergism with AA/2MB (summary); assay type: in vivo; settings: at the doses tested
Description: as §1, §5

[14] = release rate 0.25, hole 0.5 mm, loading 15 μL
[15] = release rate 0.5, hole 1 mm, loading 30 μL
[16] = release rate 1, hole 2 mm, loading 75 μL
[17] = release rate 1.5, hole 3 mm, loading 175 μL
[18] = release rate 2, hole 5.5 mm, loading 325 μL
[19] = Exp 3, release rate 0.25, hole 0.5 mm, loading 15 μL
[20] = Exp 3, release rate 0.5, hole 1 mm, loading 30 μL
[21] = Exp 3, release rate 1, hole 2 mm, loading 75 μL
[22] = Exp 3, release rate 1.5, hole 3 mm, loading 175 μL
[23] = Exp 3, release rate 2, hole 5.5 mm, loading 325 μL

C=C/C=C(\C)CCC=C(C)C [(E)-4,8-dimethyl-1,3,7-nonatriene]
4: Total Yellowjackets Caught V. vulgaris [7, 19] | Total Yellowjackets Caught V. vulgaris [7, 21]
77: Total Yellowjackets Caught V. pensylvanica [1, 17]
significantly increased: effect on trap catches of yellowjackets in the top chambers [10] | effect on trap catches of paper wasps in the top chambers [11]
5: Total Yellowjackets Caught V. vulgaris [2, 16] | Total Yellowjackets Caught V. vulgaris [2, 17] | Total Yellowjackets Caught V. vulgaris [7, 23]
synergize: synergism of attraction to mixture of acetic acid and 2-methyl-1-butanol [13]
not different: attraction alone versus water blank control traps [12]
8: Total Yellowjackets Caught V. vulgaris [2, 14] | Total Yellowjackets Caught V. vulgaris [2, 15]
47: Total Yellowjackets Caught V. pensylvanica [1, 16]
46: Total Yellowjackets Caught V. pensylvanica [1, 18]
2: Total Yellowjackets Caught V. atropilosa [6, 19] | Total Yellowjackets Caught V. vulgaris [7, 22]
significantly synergize: synergism of attraction to mixture of acetic acid and 2-methyl-1-butanol ([13]; listed as (E)-4,8-dimenthyl-1,3,7-nonatriene)
not significantly attractive: attraction alone versus water blank control traps ([12]; listed as DMNT)
68: Total Yellowjackets Caught V. pensylvanica [1, 14]
90: Total Yellowjackets Caught V. pensylvanica [1, 15]
1: Total Yellowjackets Caught V. vulgaris [2, 18] | Total Yellowjackets Caught D. maculata [3, 15] | Total Yellowjackets Caught D. maculata [3, 16] | Total Yellowjackets Caught V. atropilosa [4, 18] | Total Yellowjackets Caught V. atropilosa [6, 20] | Total Yellowjackets Caught V. atropilosa [6, 23]
6: Total Yellowjackets Caught V. vulgaris [7, 20]
0: Total Yellowjackets Caught D. maculata [3, 14] | Total Yellowjackets Caught D. maculata [3, 17] | Total Yellowjackets Caught D. maculata [3, 18] | Total Yellowjackets Caught V. atropilosa [4, 14] | Total Yellowjackets Caught V. atropilosa [4, 15] | Total Yellowjackets Caught V. atropilosa [4, 16] | Total Yellowjackets Caught V. atropilosa [4, 17] | Total Paper Wasps Caught P. aurifer [5, 14] | Total Paper Wasps Caught P. aurifer [5, 15] | Total Paper Wasps Caught P. aurifer [5, 16] | Total Paper Wasps Caught P. aurifer [5, 17] | Total Paper Wasps Caught P. aurifer [5, 18] | Total Yellowjackets Caught V. atropilosa [6, 21] | Total Yellowjackets Caught V. atropilosa [6, 22] | Total Yellowjackets Caught D. maculata [8, 19] | Total Yellowjackets Caught D. maculata [8, 20] | Total Yellowjackets Caught D. maculata [8, 21] | Total Yellowjackets Caught D. maculata [8, 22] | Total Yellowjackets Caught D. maculata [8, 23] | Total Yellowjackets Caught V. acadica [9, 19] | Total Yellowjackets Caught V. acadica [9, 20] | Total Yellowjackets Caught V. acadica [9, 21] | Total Yellowjackets Caught V. acadica [9, 22] | Total Yellowjackets Caught V. acadica [9, 23]
